ChEMBL document CHEMBL1201862, “PubChem BioAssay data set” (2004)
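Exposure lasted 48 hours, with cells grown in 96-well plates and compounds tested at five concentrations. Here, GI50 denotes the concentration required for 50% inhibition of growth.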 Active and inactive are the calls of the source. Cut-off read from the data, not from the text of the source: active = GI50 up to about 1.1 µM and inactive = higher.

What was measured:
Assay in all cases: inhibition of tumour cell growth, NCI panel, 48 h
[1] = test system: PC-3
[2] = test system: LOX IMVI
[3] = test system: COLO 205
[4] = test system: NCI-H226
[5] = test system: CAKI-1
[6] = test system: BT-549
[7] = test system: IGROV-1
[8] = test system: HT-29
[9] = test system: SNB-75
[10] = test system: MDA-MB-435
[11] = test system: MDA-N
[12] = test system: TK-10
[13] = test system: SK-MEL-2
[14] = test system: UO-31
[15] = test system: NCI-H23
[16] = test system: SN12C
[17] = test system: M14
[18] = test system: SK-OV-3
[19] = test system: SF-295
[20] = test system: SF-539

Measured: GI50

O=c1c(C(c2ccc(/C=C/c3ccccc3)cc2)c2c(O)oc3ccccc3c2=O)c(O)oc2ccccc12
inactive: [1] 40.2 µM | [2] 25.8 µM | [3] 22.6 µM | [4] 28.2 µM | [5] 23 µM | [6] 26.6 µM | [7] 27.3 µM | [8] 20.3 µM | [9] 19.7 µM | [10] 29 µM | [11] 21.8 µM | [12] 92.5 µM | [13] 34.8 µM | [14] 18.6 µM | [15] 28.1 µM | [16] 21.8 µM

O=CC1OC(=O)c2cc(O)c(O)c(O)c2-c2c(cc(O)c(O)c2O)C(=O)OC1C1OC(=O)c2cc(O)c(O)c(O)c2-c2c(O)c(O)c3oc(=O)c4c(c(O)c(O)c5oc(=O)c2c3c54)-c2c(cc(O)c(O)c2O)C(=O)OCC1O (configuration not stated)
inactive: [1] 38.2 µM | [2] 11.2 µM | [3] 26 µM | [4] 32.4 µM | [5] 12.1 µM | [6] > 100 µM | [17] 24.5 µM | [7] 39.4 µM | [8] 13.4 µM | [18] 50.6 µM | [9] 13.9 µM | [10] 22.3 µM | [11] 20.4 µM | [13] > 100 µM | [14] 23.4 µM | [15] 30.8 µM | [16] 16.6 µM | [19] 18.7 µM

O=C(NCCCCCCCCNC(=O)c1cc(-c2ccccc2)nc2ccccc12)c1cc(-c2ccccc2)nc2ccccc12
inactive: [1] > 100 µM | [2] > 100 µM | [3] > 100 µM | [4] > 100 µM | [5] > 100 µM | [6] 57.7 µM | [17] > 100 µM | [7] > 100 µM | [8] > 100 µM | [18] > 100 µM | [9] 38.6 µM | [10] > 100 µM | [11] > 100 µM | [12] > 100 µM | [14] > 100 µM | [15] > 100 µM | [20] 71.1 µM | [16] > 100 µM | [19] > 100 µM

CN(Cc1cnc2nc(N)nc(N)c2n1)c1ccc(C(=O)NCCCS(=O)(=O)O)cc1
inactive: [1] > 100 µM | [2] 75.9 µM | [3] > 100 µM | [4] > 100 µM | [6] > 100 µM | [17] > 100 µM | [7] > 100 µM | [8] > 100 µM | [18] > 100 µM | [9] > 100 µM | [10] > 100 µM | [11] > 100 µM | [12] > 100 µM | [13] > 100 µM | [14] > 100 µM | [15] > 100 µM | [20] > 100 µM | [16] > 100 µM | [19] > 100 µM

O=C1O[C@H]2[C@H](O)[C@@H](OC(=O)c3cc(O)c(O)c4c3[C@@H]3C1=CC(=O)C(O)(O)C3(O)O4)[C@H](OC(=O)c1cc(O)c(O)c(O)c1)O[C@@H]2CO (some centres not stated) [FUROSIN]
inactive: [1] > 100 µM | [2] 48 µM | [3] 99.3 µM | [4] > 100 µM | [5] > 100 µM | [6] > 100 µM | [17] 62.2 µM | [7] > 100 µM | [8] 49.1 µM | [18] 86.5 µM | [9] 78.9 µM | [10] 39.5 µM | [11] 33.6 µM | [13] > 100 µM | [14] 57.1 µM | [15] > 100 µM | [16] > 100 µM | [19] 71.6 µM

CC(C(=O)n1ccnc1)N1c2ccccc2Sc2ccccc21 (configuration not stated)
inactive: [1] 55.1 µM | [2] 82.8 µM | [3] 79.3 µM | [4] 61.9 µM | [6] > 100 µM | [17] 77.3 µM | [7] > 100 µM | [8] 90.4 µM | [18] 97.7 µM | [9] 40.6 µM | [10] > 100 µM | [11] > 100 µM | [12] > 100 µM | [13] > 100 µM | [14] 70.1 µM | [15] 78.7 µM | [20] > 100 µM | [16] 96.6 µM | [19] > 100 µM

CCOC(=O)c1ccc(-n2nnc(C(N)=O)c2O)cc1
inactive: [1] > 100 µM | [3] > 100 µM | [4] > 100 µM | [5] > 100 µM | [6] > 100 µM | [17] > 100 µM | [7] > 100 µM | [8] > 100 µM | [18] > 100 µM | [9] > 100 µM | [10] > 100 µM | [11] > 100 µM | [12] > 100 µM | [13] > 100 µM | [14] > 100 µM | [15] > 100 µM | [16] > 100 µM | [19] > 100 µM
